Results: patent publication US20250221966A1, “RXFP1 AGONISTS” (BRISTOL-MYERS SQUIBB COMPANY, priority 2021, published 2025)

Biological target: T1, human RXFP1 (Homo sapiens, UniProt Q9HBX9)
T1 construct: expressed in transfected cells
T1 sequence (Q9HBX9 1-757): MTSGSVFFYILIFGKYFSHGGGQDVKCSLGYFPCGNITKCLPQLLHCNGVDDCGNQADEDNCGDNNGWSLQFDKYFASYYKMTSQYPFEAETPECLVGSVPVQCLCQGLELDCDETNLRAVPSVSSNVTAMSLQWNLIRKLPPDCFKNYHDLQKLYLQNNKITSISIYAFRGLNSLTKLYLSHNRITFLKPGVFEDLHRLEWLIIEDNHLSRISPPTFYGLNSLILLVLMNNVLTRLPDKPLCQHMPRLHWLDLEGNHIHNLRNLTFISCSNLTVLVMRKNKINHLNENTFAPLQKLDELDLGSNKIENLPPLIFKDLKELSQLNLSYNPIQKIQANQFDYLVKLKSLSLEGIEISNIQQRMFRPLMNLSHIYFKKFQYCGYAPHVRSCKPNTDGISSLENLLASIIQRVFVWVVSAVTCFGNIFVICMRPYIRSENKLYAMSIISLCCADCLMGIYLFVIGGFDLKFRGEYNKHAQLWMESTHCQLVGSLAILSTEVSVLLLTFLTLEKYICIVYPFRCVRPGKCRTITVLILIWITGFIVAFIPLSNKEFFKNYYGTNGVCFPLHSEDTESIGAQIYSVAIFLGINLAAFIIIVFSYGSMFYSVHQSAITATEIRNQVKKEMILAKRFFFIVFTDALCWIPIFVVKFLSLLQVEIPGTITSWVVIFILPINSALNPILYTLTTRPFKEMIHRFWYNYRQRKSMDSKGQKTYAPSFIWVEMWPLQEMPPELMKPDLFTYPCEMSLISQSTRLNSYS
Experiment: RXFP1 cAMP assay (hRXFP1 HEK293 cAMP assay, HTRF)
Assay type: cell-based
Conditions: HEK293 cells stably expressing human RXFP1, 30 min at room temperature, read-out: cAMP hRXFP1 HEK293 Assay EC50
Procedure, shortened: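 In a stable human RXFP1 HEK293 line, compounds acted for 30 min at RT in buffer with 0.5 mM IBMX. HTRF then quantified cellular cAMP.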

Compared with COc1ccc(C2=NOC3COCC23)cc1C(=O)N[C@H]1[C@@H](C(=O)N[C@H](C)C2(C)CC2(F)F)[C@H]2CC[C@@H]1/C2=C\C1CC1 (stereo partly shown) [compound 770], COc1ccc(C2=NOC3COCC23)cc1C(=O)N[C@H]1[C@@H](C(=O)N[C@@H](C)C2(C)CC2)[C@H]2CC[C@@H]1/C2=C\C1CC1 (stereo partly shown) [compound 609] is 36-fold higher in EC50: 3.6 nM for the first, 130 nM for the second. The first is the more potent here.

Going from COCCOc1ccc(C2=NOC3COCC23)cc1C(=O)N[C@H]1[C@@H](C(=O)Nc2ccc(F)c(C(F)(F)F)c2)[C@H]2CC[C@@H]1/C2=C\C1CC1 (single isomer, unassigned) [compound 644] to COc1ccc(C2=NOC3CCCC23)cc1C(=O)N[C@@H]1C2CCC(/C2=C/C2CC2)[C@@H]1C(=O)Nc1ccc(F)c(C(F)(F)F)c1 (stereo partly drawn) [Example 439, (1R,2S,3R,4R,Z)-7-(cyclopropylmethylene)-N-(4-fluoro-3-(trifluoromethyl)phenyl)-3-(2-methoxy-5-(3a,5,6,6a-tetrahydro-4H-cyclopenta[d]isoxazol-3-yl)benzamido)bicyclo[2.2.1]heptane-2-carboxamide], the EC50 falls from 238 nM to 30 nM (7.9-fold).

Compared with COc1cc(F)c(F)cc1C(=O)N[C@@H]1C2CCC(/C2=C/c2cccc(OCC(F)(F)F)c2)[C@@H]1C(=O)Nc1ccc(F)c(C(F)(F)F)c1 (stereo partly shown) [compound 28], COc1cc(F)c(F)cc1C(=O)N[C@@H]1C2CCC(/C2=C/c2cccnc2)[C@@H]1C(=O)Nc1ccc(F)c(C(F)(F)F)c1 (stereo partly shown) [compound 22] is 1.8-fold higher in EC50: 400 nM for the first, 700 nM for the second.

First: COc1ccc(-c2cn(C)nc2C)cc1C(=O)N[C@H]1[C@@H](C(=O)Nc2ccc(F)c(C(F)(F)F)c2)[C@H]2CC[C@@H]1C2=C(C)C [compound 92]
Second: COc1ccc(-c2cccnc2F)cc1C(=O)N[C@H]1[C@@H](C(=O)Nc2ccc(F)c(C(F)(F)F)c2)[C@H]2CC[C@@H]1C2=C(C)C [compound 102]
The EC50 of the first is 1.6-fold lower: 380 nM for the first, 590 nM for the second. The first is the more potent here.

Going from COc1ccc(C2CC3CNS(=O)(=O)C32)cc1C(=O)N[C@H]1[C@@H](C(=O)Nc2ccc(F)c(C(F)(F)F)c2)[C@H]2CC[C@@H]1/C2=C\C1CC1 (single isomer, unassigned) [compound 733] to COc1ccc(C2CC3CN(C(=O)OC(C)(C)C)CC32)cc1C(=O)N[C@H]1[C@@H](C(=O)Nc2ccc(F)c(C(F)(F)F)c2)[C@H]2CC[C@@H]1/C2=C\C1CC1 (single isomer, unassigned) [compound 730], the EC50 rises from 6.3 nM to 263 nM (42-fold). The first is the more potent here.

Compared with COc1ccc(Cl)cc1C(=O)N[C@@H]1C2CCC(C2=C(C)C)[C@@H]1C(=O)Nc1ccc(F)c(C(F)(F)F)c1 (stereo partly shown) [compound 109], COc1cc(F)c(F)cc1C(=O)NC1C2CCC(C2=Cc2ncco2)C1C(=O)Nc1ccc(F)c(C(F)(F)F)c1 (stereo not shown) [Example 145] is 3.3-fold higher in EC50: 390 nM for the first, 1300 nM for the second.

Compared with COc1cc(F)c(F)cc1C(=O)N[C@@H]1C2CCC(/C2=C/c2ccncc2)[C@@H]1C(=O)Nc1ccc(F)c(C(F)(F)F)c1 (stereo partly shown) [compound 16], COc1cc(F)c(F)cc1C(=O)N[C@@H]1C2CCC(/C2=C/c2ccccc2)[C@]1(F)C(=O)Nc1ccc(F)c(C(F)(F)F)c1 (stereo partly shown) [Example 53] is 3.2-fold lower in EC50: 770 nM for the first, 240 nM for the second.

First: COc1ccc(-c2cc(C(F)(F)F)ccc2F)cc1C(=O)N[C@@H]1C2CCC(/C2=C/C2CC(F)(F)C2)[C@@H]1C(=O)Nc1ccc(F)c(C(F)(F)F)c1 (stereo partly shown) [compound 289]
Second: COc1ccc(-c2cc(C(O)C(=O)O)ccc2F)cc1C(=O)NC1C2CCC(/C2=C/C2CC(F)(F)C2)C1C(=O)Nc1ccc(F)c(C(F)(F)F)c1 (stereo not shown) [compound 353]
The EC50 of the first is 50-fold higher: 548 nM for the first, 11 nM for the second.

First: COc1ccc(C2=NO[C@H]3C[C@H](CO)CN23)cc1C(=O)N[C@H]1[C@@H](C(=O)Nc2ccc(F)c(C(F)(F)F)c2)[C@H]2CC[C@@H]1/C2=C\C(C)C [compound 833]
Second: COCC1CC(c2ccc(OC)c(C(=O)N[C@H]3[C@@H](C(=O)Nc4ccc(F)c(C(F)(F)F)c4)[C@H]4CC[C@@H]3C4=CC3CC3)c2)=NO1 (stereo partly shown) [compound 551]
The EC50 of the first is 9.9-fold lower: 3.7 nM for the first, 36.6 nM for the second. The first is the more potent here.

Going from COc1ccc(-c2cc([C@H](OC(=O)NC3CC3)C(F)(F)F)ccc2F)cc1C(=O)N[C@H]1[C@@H](C(=O)Nc2ccc(F)c(C(F)(F)F)c2)[C@H]2CC[C@@H]1/C2=C\CCC(F)(F)F [compound 928] to COc1ccc(-c2cc(C(OC(=O)NC3CCC3)C(F)(F)F)ccc2F)cc1C(=O)N[C@@H]1C2CCC(/C2=C/C2CC2)[C@@H]1C(=O)Nc1ccc(F)c(C(F)(F)F)c1 (stereo partly shown) [compound 221], the EC50 rises from 1.4 nM to 26 nM (19-fold). The first is the more potent here.

Compared with CC[C@@H](NC(=O)[C@@H]1[C@H](NC(=O)c2cc(C3=NOC4COCC34)ccc2OC)[C@@H]2CC[C@H]1/C2=C/C1CC1)C1CCC1 (stereo partly shown) [Example 578], COc1ccc(C2=NOC3CC(C(C)O)CC23)cc1C(=O)N[C@H]1[C@@H](C(=O)Nc2ccc(F)c(C(F)(F)F)c2)[C@H]2CC[C@@H]1/C2=C\C1CC1 (stereo partly shown) [compound 845] is 54-fold lower in EC50: 70.8 nM for the first, 1.3 nM for the second.

First: COc1c(F)cc(C2=NOC3CC(C(C)O)CC23)cc1C(=O)N[C@H]1[C@@H](C(=O)Nc2ccc(F)c(C(F)(F)F)c2)[C@H]2CC[C@@H]1/C2=C\C1CC1 (stereo partly shown) [compound 850]
Second: COc1ccc(C2=NOC3CC(C(C)(C)O)CC23)cc1C(=O)N[C@H]1[C@@H](C(=O)Nc2ccc(F)c(C(F)(F)F)c2)[C@H]2CC[C@@H]1/C2=C\C1CC1 (single isomer, unassigned) [compound 599]
The EC50 of the first is 39-fold lower: 2.7 nM for the first, 104 nM for the second.

Going from COc1cc(F)c(F)cc1C(=O)N[C@@H]1C2CCC(C2=C(C)C)[C@]1(F)C(=O)Nc1ccc(F)c(C(F)(F)F)c1 (stereo partly shown) [Example 51] to COc1ccc(C2=NOC3CC(O)(C(F)(F)F)CC23)cc1C(=O)N[C@H]1[C@@H](C(=O)Nc2ccc(F)c(C(F)(F)F)c2)[C@H]2CC[C@@H]1/C2=C\C1CC1 (stereo partly shown) [compound 864], the EC50 falls from 790 nM to 3.8 nM (210-fold). The second is the more potent here.

Going from COc1ccc(-c2cc(C(N[S+]([O-])C(C)(C)C)C(F)(F)F)ccc2F)cc1C(=O)N[C@H]1[C@@H](C(=O)Nc2ccc(F)c(C(F)(F)F)c2)[C@H]2CC[C@@H]1/C2=C\C1CC1 (stereo partly drawn) [Example 256, (1R,2S,3R,4R,Z)-3-(5′-(1-((tert-butylsulfinyl)amino)-2,2,2-trifluoroethyl)-2′-fluoro-4-methoxy-[1,1′-biphenyl]-3-carboxamido)-7-(cyclopropylmethylene)-N-(4-fluoro-3-(trifluoromethyl)phenyl)bicyclo[2.2.1]heptane-2-carboxamide] to COc1ccc(-c2cc(C(C)OC(=O)Nc3ccccc3)ccc2F)cc1C(=O)N[C@H]1[C@@H](C(=O)Nc2ccc(F)c(C(F)(F)F)c2)[C@H]2CC[C@@H]1/C2=C\C1CC1 (stereo partly drawn) [Example 222, 1-(3′-(((1R,2R,3S,4R,Z)-7-(cyclopropylmethylene)-3-((4-fluoro-3-(trifluoromethyl)phenyl)carbamoyl)bicyclo[2.2.1]heptan-2-yl)carbamoyl)-6-fluoro-4′-methoxy-[1,1′-biphenyl]-3-yl)ethyl phenylcarbamate], the EC50 falls from 14 nM to 1 nM (14-fold). The second is the more potent here.

Compared with COc1ccc(-c2cc(C(OC(=O)NC3CCC3)C(=O)O)ccc2F)cc1C(=O)N[C@H]1[C@@H](C(=O)Nc2ccc(F)c(C(F)(F)F)c2)[C@H]2CC[C@@H]1/C2=C\C1CCCC1 (stereo partly shown) [compound 936], COc1ccc(C2=NOC3(CO)CCCC23)cc1C(=O)N[C@H]1[C@@H](C(=O)Nc2ccc(F)c(C(F)(F)F)c2)[C@H]2CC[C@@H]1/C2=C\C1CC1 (single isomer, unassigned) [compound 616] is 100-fold higher in EC50: 1.4 nM for the first, 141 nM for the second.

COc1ccc(-c2cc(C(=O)O)ccc2F)cc1C(=O)N[C@@H]1C2CCC(/C2=C/c2ccccc2)[C@@H]1C(=O)Nc1cccc(S(=O)(=O)C(F)(F)F)c1 (stereo partly shown) [compound 122] showed an EC50 of 13 nM.
